The subject of experiment [1] is J82 cisR. Put plainly: MTT cell viability assay. The format is cell-based, human. The procedure: (§1) The cell viability for determination of IC50 values and synergism studies was analyzed by MTT assay as previously described. […] For preincubation experiments, 1600 c/w (cells per well) for J82 and 1200 c/w for J82 cisR were used. After the incubation time, 25 µL MTT (3-(4,5-dimethylthiazol-2-yl)-2,5-diphenyltetrazolium bromide, Serva, Heidelberg, Germany) solution (5 mg/mL in phosphate-buffered saline) was added. The formazan was dissolved in 75 µL DMSO, and the absorption was measured at 540 nm and 690 nm with a microplate reader (ThermoFisher Multiskan, Thermo Scientific, Wesel, Germany).
A general note: Tetrazolium assays rely on reduction of a dye to a coloured formazan, in cell work by metabolically active cells.

In experiment [2] the test system is J82. In words: MTT cell viability assay. The format is cell-based, human. The procedure: as §1
Experiment [3] concerns T24 LTT. In words: MTT cell viability assay. The experiment is classed as cell-based, human. How it is done: as §1
The test system of experiment [4] is T24. Put plainly: MTT cell viability assay. The experiment is classed as cell-based, human. How it is done: as §1
For experiment [5], the target named is T1, HDAC 4 (Homo sapiens, UniProt P56524).
T1 construct: purchased Reaction Biology Corp (Malvern, PA, USA) KDA-21-279
T1 sequence (P56524 whole entry): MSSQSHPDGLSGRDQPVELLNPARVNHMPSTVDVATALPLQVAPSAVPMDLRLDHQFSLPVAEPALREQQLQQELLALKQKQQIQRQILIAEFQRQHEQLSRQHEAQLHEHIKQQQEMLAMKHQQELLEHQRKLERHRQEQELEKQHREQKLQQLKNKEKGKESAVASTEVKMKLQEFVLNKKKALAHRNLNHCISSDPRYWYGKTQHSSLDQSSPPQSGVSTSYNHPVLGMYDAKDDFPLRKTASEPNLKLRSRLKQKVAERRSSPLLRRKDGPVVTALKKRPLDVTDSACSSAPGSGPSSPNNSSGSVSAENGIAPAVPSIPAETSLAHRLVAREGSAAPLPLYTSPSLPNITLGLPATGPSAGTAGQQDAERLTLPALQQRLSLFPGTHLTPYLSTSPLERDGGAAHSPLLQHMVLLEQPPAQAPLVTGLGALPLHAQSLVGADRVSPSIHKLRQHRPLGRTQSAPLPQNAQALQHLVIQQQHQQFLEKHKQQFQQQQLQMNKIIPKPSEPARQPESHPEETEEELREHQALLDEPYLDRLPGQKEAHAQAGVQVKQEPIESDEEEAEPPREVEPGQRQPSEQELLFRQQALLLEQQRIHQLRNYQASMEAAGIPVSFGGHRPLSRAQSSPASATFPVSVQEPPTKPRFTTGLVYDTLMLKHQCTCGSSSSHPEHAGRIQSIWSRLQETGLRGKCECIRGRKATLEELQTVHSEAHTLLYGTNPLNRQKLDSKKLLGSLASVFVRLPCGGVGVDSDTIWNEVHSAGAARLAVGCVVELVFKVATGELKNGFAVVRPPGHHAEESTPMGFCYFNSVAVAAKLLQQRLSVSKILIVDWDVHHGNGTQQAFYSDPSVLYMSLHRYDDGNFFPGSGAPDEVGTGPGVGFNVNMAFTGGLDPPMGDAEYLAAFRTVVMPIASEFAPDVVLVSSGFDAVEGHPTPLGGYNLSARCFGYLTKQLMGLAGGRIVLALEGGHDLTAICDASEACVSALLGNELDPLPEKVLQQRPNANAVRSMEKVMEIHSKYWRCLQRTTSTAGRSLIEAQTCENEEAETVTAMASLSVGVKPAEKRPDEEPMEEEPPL
In words: Enzyme HDAC inhibition assay. The format is biochemical. Particulars: recombinant enzyme, Boc-Lys-(Tfa)-AMC; read-out: HDAC4 IC50 ± SD. From the text:
(§2) The human recombinant enzymes were ordered from Reaction Biology Corp (Malvern, PA, USA).

For experiment [6], the target named is T2, HDAC 8 (Homo sapiens, UniProt Q9BY41).
T2 construct: purchased Reaction Biology Corp (Malvern, PA, USA) KDA-21-481
T2 sequence (Q9BY41 1-377): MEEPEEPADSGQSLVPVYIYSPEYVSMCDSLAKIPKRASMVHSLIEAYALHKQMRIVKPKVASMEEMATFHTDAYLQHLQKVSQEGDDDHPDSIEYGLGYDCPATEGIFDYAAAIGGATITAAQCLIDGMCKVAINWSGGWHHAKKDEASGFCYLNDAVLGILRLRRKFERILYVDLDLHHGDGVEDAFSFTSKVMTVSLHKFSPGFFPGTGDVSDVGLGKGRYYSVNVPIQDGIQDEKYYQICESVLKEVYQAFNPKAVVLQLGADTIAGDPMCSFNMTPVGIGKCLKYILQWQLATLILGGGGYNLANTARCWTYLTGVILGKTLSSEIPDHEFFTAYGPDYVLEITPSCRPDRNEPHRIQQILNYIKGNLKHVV
In words: Enzyme HDAC inhibition assay. Particulars: recombinant enzyme, Boc-Lys-(Tfa)-AMC; read-out: HDAC8 IC50 ± SD. The format is biochemical.
Description: as §2

In experiment [7] the test system is caspase 3/7. Put plainly: Activation of caspase 3/7 (CellEvent, high content screening). Particulars: single treatment, all four cell lines (J82, J82 cisR, T24, T24 LTT). The format is cell-based, human. The procedure:
Activation of caspase 3/7 was examined using the CellEvent Caspase-3/7 green detection reagent (Thermo Scientific, Wesel, Germany) according to the manufacturer’s instructions. The cells were seeded in 96-well-plates (Corning, Kaiserslautern, Germany) and treated with the indicated compounds for 48 h (J82 1600 c/w; J82 cisR 800 c/w; T24 1200 c/w; T24 LTT 3000 c/w). […] The supernatant was aspirated and a solution of CellEvent Caspase 3/7 green detection reagent (PBS, 1% heat inactivated fetal calf serum) was added to the cells for a final concentration of 2 µM. Hoechst 33342 (10 mg/mL in water, Sigma-Aldrich, Steinheim, Germany) was used for nuclei staining. The cells were incubated for 30 min at 37 °C and 5% CO2 before imaging by using the Thermo Fischer ArrayScan XTI high content screening (HCS) system with a 10 × magnification (Thermo Scientific, Wesel, Germany).

Experiment [8] deals with HDAC 1-3 and 6. Details: method as in PMID 34582215. Particulars: cited from earlier work.
The subject of experiment [9] is BRDs. Details: method as in PMID 34582215. Particulars: cited from earlier work.
[10] abbreviates: 7.5 µM of 20, without cisplatin (Figure 10, S17).

One may read the IC50 as the point on the concentration scale where inhibition reaches its midpoint.

Turning to `CCc1c(C(=O)Nc2cc(/C=C/C(=O)NO)ccc2OC)[nH]c(C)c1C(C)=O` [compound 20], the “decrease in cell viability” value in [1] (setting [10]), in [2] (setting [10]), in [3] (setting [10]) and in experiment [4] (setting [10]) was 60–70% in each case. Besides, the 50% inhibitory concentration (IC50) in experiment [1] (Homo sapiens, 72 h, MTT, 72 h, compound alone, read-out: IC50 ± SD) is 7 ± 0.49 µM; in experiment [2] (Homo sapiens, J82, 72 h, MTT, 72 h, compound alone, read-out: IC50 ± SD), 7.17 ± 0.57 µM; in experiment [3] (Homo sapiens, MTT, 72 h, compound alone, read-out: IC50 ± SD) it was 4.66 ± 0.41 µM; in experiment [4] (Homo sapiens, T-24, MTT, 72 h, compound alone, read-out: IC50 ± SD), 6.95 ± 0.54 µM; in experiment [5], 207 µM; in experiment [6], 6.03 µM. Moreover, the “caspase 3/7 activation” value in experiment [7] was “only weakly activated”. Further, the “inhibitory activity against HDAC 1-3 and 6” value in [8] is on record as “sub-micromolar”. For the same molecule, in [9], the “inhibitory activity to BRDs” value is given as “single-digit micromolar range”.

The record behind these values is publication PMC11476342 (Cancers, 2024).
